Reference: US20260042764A1, “COMPOSITIONS AND METHODS FOR INHIBITION OF KRAS” (TheRas, Inc., priority 2022, published 2026)

What was measured:
[1] = target: T1, Avi-KRAS G12D (1-169) GppNHp/RAF1 RBD-3xFLAG (52-151) (Homo sapiens, UniProt P01116, G12D); assay: Raf1-KRAS G12D-GppNHP disruption HTRF assay (Biological Example 1); type: binding; conditions: KRAS G12D-GppNHp/RAF1 RBD HTRF
T1 construct: Avi-KRAS G12D (1-169)
Outline: (§1)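 Measured with a KRAS/RAF1 HTRF assay at pH 7.5 in 10% DMSO, with two 1 h room-temperature incubations with shaking.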

[2] = target: T2, Avi-KRAS G12V (2-169) GTP/RAF1 RBD-3xFLAG (51-131) (Homo sapiens, UniProt P01116, G12V); assay: Raf1-KRAS G12V-GTP disruption HTRF assay (Biological Example 3); type: binding; conditions: KRAS G12V, GTP-loaded
T2 construct: Avi-KRAS G12V (2-169)
T2 sequence (P01116 2-169 isoform P01116-2 G12V): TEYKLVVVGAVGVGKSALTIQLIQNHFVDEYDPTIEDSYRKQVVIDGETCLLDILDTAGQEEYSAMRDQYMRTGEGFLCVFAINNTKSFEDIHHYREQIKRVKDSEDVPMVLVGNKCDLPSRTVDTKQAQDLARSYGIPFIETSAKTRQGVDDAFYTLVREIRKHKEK
Outline: (§2)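 Each KRAS-GTP/RAF1 RBD complex at 50 nM, with 75 nM 3xFLAG-RAF1 RBD (51-131)-Avi, in 50 mM Tris pH 7.5, 100 mM NaCl, 5 mM MgCl2, 0.1% BSA, 0.01% Tween 20, 10% DMSO. Compounds titrated from 30 μM, 10-point 3x series; 1 h at room temperature with shaking. HTRF read, activity as percent of DMSO.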

[3] = target: T3, Avi-KRAS G12V (1-169) GppNHp/RAF1 RBD-3xFLAG (52-151) (Homo sapiens, UniProt P01116, G12V); assay: Raf1-KRAS G12V-GppNHP disruption HTRF assay (Biological Example 1); type: binding; conditions: KRAS G12V-GppNHp/RAF1 RBD HTRF
T3 construct: Avi-KRAS G12V (1-169)
T3 sequence (P01116 1-169 isoform P01116-2 G12V): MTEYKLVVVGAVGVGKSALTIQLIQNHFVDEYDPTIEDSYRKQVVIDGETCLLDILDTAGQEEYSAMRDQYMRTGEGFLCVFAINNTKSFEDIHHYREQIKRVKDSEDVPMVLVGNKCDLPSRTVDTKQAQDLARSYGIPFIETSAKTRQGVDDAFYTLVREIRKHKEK
Outline: as §1

[4] = target: T4, Avi-KRAS WT (1-169) GppNHp/RAF1 RBD-3xFLAG (52-151) (Homo sapiens, UniProt P01116); assay: Raf1-KRAS WT-GppNHP disruption HTRF assay (Biological Example 1); type: binding; conditions: KRAS WT-GppNHp/RAF1 RBD HTRF
T4 construct: Avi-KRAS WT (1-169)
T4 sequence (P01116 1-169 isoform P01116-2): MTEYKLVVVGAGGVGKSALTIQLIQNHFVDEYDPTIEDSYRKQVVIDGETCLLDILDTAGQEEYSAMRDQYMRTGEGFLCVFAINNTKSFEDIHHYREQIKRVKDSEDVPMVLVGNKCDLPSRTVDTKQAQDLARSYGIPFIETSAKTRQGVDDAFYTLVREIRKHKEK
Outline: as §1

SW620 cells (KRAS G12V) = assay: Cell-based pERK HTRF assay in SW620 cell (Biological Example 4)
Outline: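 SW620 cells were treated for 4 h with compound in a 9-point half-log series from 1 μM top (0.25% DMSO), then lysed. Phospho-ERK was detected by HTRF with d2 and Eu cryptate antibodies after 4–24 h at room temperature, read at 615 nm emission.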

[5] = target: T5, Avi-KRAS WT (2-169) GTP/RAF1 RBD-3xFLAG (51-131) (Homo sapiens, UniProt P01116); assay: Raf1-KRAS WT-GTP disruption HTRF assay (Biological Example 3); type: binding; conditions: KRAS WT, GTP-loaded
T5 construct: Avi-KRAS WT (2-169)
T5 sequence (P01116 2-169 isoform P01116-2): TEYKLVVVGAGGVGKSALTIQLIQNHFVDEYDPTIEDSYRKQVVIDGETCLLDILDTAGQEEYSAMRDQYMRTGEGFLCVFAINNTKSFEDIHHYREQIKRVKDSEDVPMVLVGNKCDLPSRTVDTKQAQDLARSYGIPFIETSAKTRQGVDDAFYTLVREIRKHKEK
Outline: as §2

[6] = Homo sapiens, SW-620, SW620 (KRAS G12V) cells
[7] = Homo sapiens, SW-620, SW620 (KRAS G12V) cells, pERK HTRF
[8] = SW620 (KRAS G12V) cells, pERK HTRF

Measured: IC50

T1 sequence (P01116 1-169 isoform P01116-2 G12D): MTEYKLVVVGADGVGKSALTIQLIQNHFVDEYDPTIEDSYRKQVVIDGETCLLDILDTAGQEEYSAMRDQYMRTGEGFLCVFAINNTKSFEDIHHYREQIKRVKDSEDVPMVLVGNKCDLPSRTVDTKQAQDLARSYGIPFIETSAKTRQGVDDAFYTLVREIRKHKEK

CCN1C[C@@H](N(CC)c2nc(OC[C@@]34CCCN3C[C@H](F)C4)nc3c(F)c(-c4ccc(F)c5sc(N)c(C#N)c45)c(C(F)(F)F)cc23)CC1=O [Compound 529, 2-amino-4-(4-(ethyl((S)-1-ethyl-5-oxopyrrolidin-3-yl)amino)-8-fluoro-2-(((2R,7aS)-2-fluorotetrahydro-1H-pyrrolizin-7a(5H)-yl)methoxy)-6-(trifluoromethyl)quinazolin-7-yl)-7-fluorobenzo[b]thiophene-3-carbonitrile]
≤ 0.1 µM: [2] | [5]
< 0.1 µM: [1] | [3] | [4] | SW620 cells (KRAS G12V); [6] | SW620 cells (KRAS G12V); [7]

CCN(c1nc(OC[C@@]23CCCN2C[C@H](F)C3)nc2c(F)c(-c3ccc(F)c4sc(N)c(C#N)c34)c(C(F)(F)F)cc12)[C@H]1C[C@H](C)N(C(=O)C2COC2)C1 (atropisomer, axis not shown) [Compound 539]
< 0.1 µM: [1] | [3] | [4] | SW620 cells (KRAS G12V); [6] | SW620 cells (KRAS G12V); [7]
0.1 to 1 µM: [2] | [5]

CCN(c1nc(OC[C@@]23CCCN2C[C@H](F)C3)nc2c(F)c(-c3ccc(F)c4sc(N)c(C#N)c34)c(C(F)(F)F)cc12)[C@H]1CCN(C(=O)OC)C1 (atropisomer, axis not shown) [Compound 541, methyl(3S)-3-[[7-(2-amino-3-cyano-7-fluoro-benzothiophen-4-yl)-8-fluoro-2-[[(2R,8S)-2-fluoro-1,2,3,5,6,7-hexahydropyrrolizin-8-yl]methoxy]-6-(trifluoromethyl)quinazolin-4-yl]-ethyl-amino]pyrrolidine-1-carboxylate]
≤ 0.1 µM: [2]
< 0.1 µM: [1] | [3] | [4] | SW620 cells (KRAS G12V); SW620 (KRAS G12V) cells | SW620 cells (KRAS G12V); [8]
0.1 to 1 µM: [5]

Cc1c(C(=O)N(C)C)nn2c1CN(c1nc(OC[C@@]34CCCN3C[C@H](F)C4)nc3c(F)c(-c4ccc(F)c5sc(N)c(C#N)c45)c(C(F)(F)F)cc13)CC2 [Compound 501]
0.1 to 1 µM: [2] | [3] | [4] | [5]
< 0.1 µM: [1] | SW620 cells (KRAS G12V); [6] | SW620 cells (KRAS G12V); [7]

CCC(=O)N1C[C@H](N(CC)c2nc(OC[C@@]34CCCN3C[C@H](F)C4)nc3c(F)c(-c4ccc(F)c5sc(N)c(C#N)c45)c(C(F)(F)F)cc23)C[C@@H]1C (atropisomer, axis not shown) [Compound 533]
0.1 to 1 µM: [1] | [2] | [3] | [4] | [5]
< 0.1 µM: SW620 cells (KRAS G12V); [6] | SW620 cells (KRAS G12V); [7]

CCN(c1nc(OC[C@@]23CCCN2C[C@H](F)C3)nc2c(F)c(-c3ccc(F)c4sc(N)c(C#N)c34)c(C(F)(F)F)cc12)[C@@H]1CCN(C(=O)C2CC2)[C@@H]1C (atropisomer, axis not shown) [Compound 524]
< 0.1 µM: [1] | [3] | [4] | SW620 cells (KRAS G12V); [6] | SW620 cells (KRAS G12V); [8]
≤ 0.1 µM: [2] | [5]

CCN(c1nc(OC[C@@]23CCCN2C[C@H](F)C3)nc2c(F)c(-c3ccc(F)c4sc(N)c(C#N)c34)c(C(F)(F)F)cc12)[C@@H]1C[C@@H](C)N(C(C)=O)C1 (atropisomer, axis not shown) [Compound 527]
0.1 to 1 µM: [1] | [2] | [3] | [4] | [5]
< 0.1 µM: SW620 cells (KRAS G12V); [6] | SW620 cells (KRAS G12V); [7]

CCN(c1nc(OC[C@@]23CCCN2C[C@H](F)C3)nc2c(F)c(-c3ccc(F)c4sc(N)c(C#N)c34)c(C(F)(F)F)cc12)[C@H]1C[C@@H]2COC(=O)N2C1 (atropisomer, axis not shown) [Compound 519]
0.1 to 1 µM: [2] | [3] | [5]
< 0.1 µM: [1] | [4] | SW620 cells (KRAS G12V); [6] | SW620 cells (KRAS G12V); [7]

CCN(c1nc(OC[C@@]23CCCN2C[C@H](F)C3)nc2c(F)c(-c3ccc(F)c4sc(N)c(C#N)c34)c(C(F)(F)F)cc12)[C@@H]1C[C@H](C)N(C(C)=O)C1 (atropisomer, axis not shown) [Compound 534]
0.1 to 1 µM: [1] | [2] | [3] | [4] | [5]
< 0.1 µM: SW620 cells (KRAS G12V); [6] | SW620 cells (KRAS G12V); [7]

CCN(c1nc(OC[C@@]23CCCN2C[C@H](F)C3)nc2c(F)c(-c3ccc(F)c4sc(N)c(C#N)c34)c(C(F)(F)F)cc12)[C@H]1CCN(C(=O)c2ccon2)C1 (atropisomer, axis not shown) [Compound 554]
0.1 to 1 µM: [2] | [5]
< 0.1 µM: [1] | [3] | [4] | SW620 cells (KRAS G12V); [6] | SW620 cells (KRAS G12V); [7]
